This data set in a line: Human HepG2 cell viability assay in 384 well format. It counts as toxicity, cell-based. Set-up: dose 125 nL, time 70.5 hour; concentration not given beside the values. The following applies: HepG2 cells, read-out: Inhibition.
In the case of `CCC[C@H]1CN(S(C)(=O)=O)C[C@@H]1NC(=O)CCCn1ccnc1`, the cytotoxicity at 70.5 h stood at 1.51%.

`Cc1csc(C(Cc2ccsc2)NC(=O)CN(C)Cc2ccccn2)n1` (stereo unspecified): the cytotoxicity at 70.5 h was -5%.

For the compound `CN(CCOc1cccc(Cl)c1)Cc1nnc(C(C)(C)C)o1`, the cytotoxicity at 70.5 h was -2.27%. For the compound `Cc1cc(CN2CCC(O)(Cn3ccc4ncccc43)CC2)c(C)s1`, the cytotoxicity at 70.5 h came out at 4.82%. `COc1ccccc1C(O)CNC(=O)Nc1ccccn1` (stereo unspecified): the cytotoxicity at 70.5 h was -5.18%.

Turning to `CC(C)CC(=O)Nc1cc(C(=O)N(C)C(C)C)ccc1Cl`, the cytotoxicity at 70.5 h was -8.37%. In the case of `Cn1ccc(C(=O)NCc2ccccc2Cn2ccnc2)cc1=O` it was -8.24%; in that of `O=C(NCc1cccs1)c1nc2c(o1)CN(CC1CC1)C2`, -9.19%.

With `COC(=O)c1ccc(NS(=O)(=O)c2cnc(NC(C)=O)s2)cc1`, the cytotoxicity at 70.5 h was -12%. The value for `O=C(NCCc1ccc(Cl)s1)NCc1nnc2n1CCC2` was 8.18%; that for `Cc1nnc(N2CCC(CN(C)C(C)C)CC2)c(C#N)c1C` was 20.7%; that for `CN1CCCC(Cc2cncc(Br)c2)CC1` (stereo unspecified) was 0.975%. The value for `CC(Nc1ccc(CCN2CCOCC2)cc1)C(=O)N(C)CCC#N` (stereo unspecified) was 9.3%.

For the compound `c1ccc(OCCN2CCC(n3cncn3)CC2)cc1`, the cytotoxicity at 70.5 h amounted to 25.3%.

With `Cc1cc(N2CCN(CCO)CC2)nc(-c2ccncc2)n1`, the cytotoxicity at 70.5 h came out at 0.374%.

With `Cn1cc(Cl)cc1C(=O)N1CCCN(Cc2ccccc2)CC1`, the cytotoxicity at 70.5 h is -8.08%. In the case of `O=C(NCCO)Nc1ccc(Br)c(F)c1` it was -0.649%; in that of `CCC(=O)NCC(=O)NCc1cc(Br)ccc1OC(F)F`, -5.29%. In the case of `CC(C)NC(=O)CNC(=O)N1CCc2c([nH]c3ccc(Cl)cc23)C1` it was -7.52%; in that of `CC(O)c1cccc(N2CCC3(CCC(=O)N(CC(N)=O)C3)CC2)n1` (stereo unspecified), -11.2%; in that of `NC(=O)C1CN(C(=O)Cc2cccnc2)CCN(C2CCOCC2)C1` (stereo unspecified), 0.12%.

Regarding `O=C(O)c1ccc(=O)n(CC(c2ccc(Cl)cc2)N2CCOCC2)c1` (stereo unspecified), the cytotoxicity at 70.5 h is -6.42%.

With `CNc1ncc(CN(C)Cc2cc(O)c3cc(C)cc(C)c3n2)cn1`, the cytotoxicity at 70.5 h was -15.9%. On to `O=C1NC2(CCN(C(=O)c3ccc(Cl)cn3)CC2)CC1c1ccccc1` (stereo unspecified), for which the cytotoxicity at 70.5 h came to 8.76%. The value for `O=C(C[C@@H]1COC[C@H]2CN(C(=O)c3cccnc3)C[C@@H]12)N1CCOCC1` was -4.26%. In the case of `Cc1oncc1C(=O)N[C@@H]1CN(Cc2ccoc2)C[C@@H]2CCCO[C@@H]21`, the cytotoxicity at 70.5 h was 2.7%. The value for `CCNC(=O)[C@@H]1C[C@H](N)CN1c1cc(C(F)(F)F)nc(N(C)C)n1` was 37.1%. In the case of `CC(=O)N1CCCN(C(=O)c2ccc(Sc3ccccn3)cc2)CC1` it was -8.48%. The value for `CN(C)C(=O)Cn1c(C2CC2)c(CN2CCSCC2)c2cccnc21` was 1.03%; that for `CNS(=O)(=O)c1ccc(CNC(=O)c2ccccn2)cc1` was -9.5%; that for `Cn1cccc1C(=O)N1CCCN(CCCc2ccccc2)CC1` was 7.34%. Regarding `CC/C=C(/C)C(=O)NS(=O)(=O)c1ccc(C#N)cc1C(F)(F)F`, the cytotoxicity at 70.5 h was -7.29%. In the case of `CCOc1ccc(CN2CCN(C(=O)c3cc(C4CC4)[nH]n3)CC2)cc1` it was -2.02%; in that of `Cc1nc(-c2ccc(NCCc3ccc(O)cc3)nc2)[nH]c(=O)c1C`, 3.42%. Turning to `Cc1cc(C)c(NC(=O)Nc2cnn(CC(O)CN(C)C)c2)c(C)c1` (stereo unspecified), the cytotoxicity at 70.5 h is -13.2%. The value for `Cc1cc(NC(=O)CN(C)C2CCCN(c3cccnn3)C2)on1` (stereo unspecified) was 23.1%; that for `Cc1ncsc1CCN(C)C(=O)c1ccc(Cn2cnnn2)cc1` was 3.1%. The value for `CCc1ccc(C(COC)NC(=O)c2ccsc2)o1` (stereo unspecified) was -3.72%. In the case of `CCC(CC)NC(=O)c1cccnc1-n1cccn1` it was 18%; in that of `CN(C)CC(NC(=O)c1ccn(C)c(=O)c1)c1ccccc1` (stereo unspecified), 0.262%.

Consider `Nc1cc2c(nn1)CCN(C(=O)c1csc(-c3ccco3)n1)C2`, for which the cytotoxicity at 70.5 h is -4.34%. Take `CC(C)N1CCC(Nc2ccn(CCC#N)n2)C1=O` (stereo unspecified): the cytotoxicity at 70.5 h was -2.6%.

For the compound `CSCC(C)(O)CNC(=O)c1ccc(Br)cc1C` (stereo unspecified), the cytotoxicity at 70.5 h was -9.56%. In the case of `COCCNC(=O)Cn1cc(OCc2ccc(F)cc2)c(=O)cc1CO` it was -9.69%; in that of `Cc1cccn2c(=O)cc(CN3CCCC3Cn3cccn3)nc12` (stereo unspecified), -1.74%; in that of `CC(C)C1CN(c2cccc(C#N)n2)CCCN1CC1CC1` (stereo unspecified), -11.5%. For the compound `OC(CN1CCC(c2ccn[nH]2)CC1)c1ccc(F)cc1F` (stereo unspecified), the cytotoxicity at 70.5 h was -5.74%.

Regarding `CC(C1CCN(Cc2cnn(C)c2C2CC2)CC1)N(C)C` (stereo unspecified), the cytotoxicity at 70.5 h was -7.09%. In the case of `O=C(C[C@@H]1COC[C@H]2CN(C(=O)c3cccnc3)C[C@@H]12)N1CCCC1` it was 1.64%.

In the case of `CC(C)n1c(=O)c2ccccc2n(CCCN(C)C)c1=O`, the cytotoxicity at 70.5 h was -12.5%.

As for `COc1cccc(COc2nc(C(C)C)no2)c1`, the cytotoxicity at 70.5 h stood at 15.2%.

As to `COCC1CCN(CCOc2ccc(C#N)cc2OC)CC1`, the cytotoxicity at 70.5 h stood at 20.7%. Turning to `CN(C)Cc1nn(C)c2c1CN(C(=O)Nc1cccc(F)c1)C2`, the cytotoxicity at 70.5 h is -2.91%. The value for `CC(=O)NCCCNC(=O)N(C)C(C)Cc1ccc(Cl)cc1` (stereo unspecified) was -8.06%. In the case of `CN(C)CCN1CCCC12CCCN(Cc1ccco1)C2` (stereo unspecified) it was 7.41%; in that of `CC(C)c1ccsc1C(=O)N1CCCN(Cc2cscn2)CC1`, 15.1%. On to `Cc1cccc2nc(CNC(=O)N3CCC(OCC4CC4)CC3)cn12`, for which the cytotoxicity at 70.5 h came to 24.4%. The value for `Cn1cc(C2CC(=O)NC23CCN(C(=O)NC2CC2)CC3)cn1` (stereo unspecified) was -6.56%; that for `CCS(=O)(=O)Nc1ccc2c(c1)C1(CCOCC1)CN2C` was -1.55%; that for `Cc1cc(=O)[nH]c(-n2nc(-c3cccs3)cc2N)n1` was 13.9%.

Regarding `CCN(Cc1c(F)cccc1Cl)c1cc(C2CCNCC2)nc(C)n1`, the cytotoxicity at 70.5 h came out at 2.62%.

Regarding `Cc1ccc([C@]2(O)CC[C@H]3CN(Cc4cccnc4)C[C@H]32)nc1`, the cytotoxicity at 70.5 h amounted to 9.25%. The value for `O=C1CC(c2ccc(C(=O)O)cc2)c2ncn(-c3ccccc3F)c2N1` (stereo unspecified) was -11.1%; that for `O=C(CCCOc1ccccc1)N1CCCC(n2cncn2)C1` (stereo unspecified) was 2.63%; that for `CCc1nc(C2CCCN(C(=O)c3ccccc3Cl)C2)no1` (stereo unspecified) was -1.75%. With `CN1C(=O)CC(c2ccccc2)C12CCN(CCO)CC2` (stereo unspecified), the cytotoxicity at 70.5 h was 2.6%. The value for `Cc1cc(C)nc(C2CCCN2c2ccnc(C)n2)n1` (stereo unspecified) was -0.201%. With `CN(c1ccc(CNC(=O)c2c[nH]c(=O)c(Cl)c2)cc1)C1CCCCC1`, the cytotoxicity at 70.5 h amounted to 5.49%.

For `COCCNc1c(-c2ccc(C)cc2)c(=O)c1=O`, the cytotoxicity at 70.5 h was -9.49%. The value for `CC(NC(=O)N1CCN(c2cccs2)CC1)c1ccncc1` (stereo unspecified) was -3.43%; that for `Cn1ncc2c(NCCn3cccc3)nc(C3CCCC3)nc21` was -5.71%.

The values above are taken from ChEMBL document CHEMBL3507680, “University of Dundee, Gates Library screen for HepG2 cell viability”.
